Assay results taken from patent publication US12448399B2, “Cereblon-based KRAS degrading PROTACs and uses related thereto” (Arvinas Operations, Inc., priority 2023, dated 2025).

Target: T1, KRas-G12D (Homo sapiens, UniProt P01116, G12D)
T1 construct: insert the HiBiT tag onto the N-terminus of one or more of the endogenous KRas alleles; host or cells: AsPC-1 HiBiT-KRasG12D knock-in clone (one tagged allele, two untagged KRasG12D alleles)
Test: HiBiT Degradation Assay (G12D), AsPC-1 HiBiT-KRasG12D cells, 24 hr
Format: cell-based
Settings: for Dmax: ASPC1, AsPC-1 cells, maximum degradation observed; for DC50: AsPC-1 cells
Method in brief: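 Degradation was read after 24 hr compound exposure (0.5% DMSO, 37° C) by Nano-Glo HiBiT lytic luminescence in AsPC-1 cells carrying a HiBiT tag on one of three KRasG12D alleles. Signal relative to DMSO gave DC50 and Dmax by 4-parameter fit; alamar blue fluorescence monitored cytotoxicity.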

T1 sequence (P01116 1-188 isoform P01116-2 G12D): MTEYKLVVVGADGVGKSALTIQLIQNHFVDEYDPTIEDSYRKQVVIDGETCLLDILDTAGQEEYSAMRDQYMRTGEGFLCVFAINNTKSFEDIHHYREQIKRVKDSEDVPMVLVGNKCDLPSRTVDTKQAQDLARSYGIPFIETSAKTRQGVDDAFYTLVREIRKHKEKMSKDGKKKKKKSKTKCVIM

SMILES	Dmax [%]	DC50 [µM]
CCc1cccc2cc(O)cc(-c3ncc4c(N5CC6CCC(C5)N6)nc(OCCN5CCC(CC6CCN(c7cccc8c7C(=O)N(C7CCC(=O)NC7=O)C8=O)CC6)CC5)nc4c3F)c12 (stereo not drawn) [Compound 66, 4-[4-[[1-[2-[4-(3,8-diazabicyclo[3.2.1]octan-3-yl)-7-(8-ethyl-3-hydroxy-1-naphthyl)-8-fluoro-pyrido[4,3-d]pyrimidin-2-yl]oxyethyl]-4-piperidyl]methyl]-1-piperidyl]-2-(2,6-dioxo-3-piperidyl)isoindoline-1,3-dione]	≤ 25	0.25 to 1
CCc1cccc2cc(O)cc(-c3ncc4c(N5CC6CCC(C5)N6)nc(OCCN5CCC(CC6CCN(c7ccc8c(c7)C(=O)N(C7CCC(=O)NC7=O)C8=O)CC6)CC5)nc4c3F)c12 (stereo not drawn) [Compound 67, 5-[4-[[1-[2-[4-(3,8-diazabicyclo[3.2.1]octan-3-yl)-7-(8-ethyl-3-hydroxy-1-naphthyl)-8-fluoro-pyrido[4,3-d]pyrimidin-2-yl]oxyethyl]-4-piperidyl]methyl]-1-piperidyl]-2-(2,6-dioxo-3-piperidyl)isoindoline-1,3-dione]	–	> 1
C#Cc1c(F)ccc2cc(O)cc(-c3ncc4c(C5CC6CCC(C5)N6)nc(OCCN5CCC(CC6CCN(CC7CCN(c8ccc9c(c8)CN(C8CCC(=O)NC8=O)C9=O)CC7)CC6)CC5)nc4c3F)c12 (stereo not drawn) [Compound 68]	> 70	< 5.1
C#Cc1c(F)ccc2cc(O)cc(-c3ncc4c(C5CC6CCC(C5)N6)nc(OCCN5CCC6(CC5)CCN(CC5CCN(c7ccc8c(c7)CN(C7CCC(=O)NC7=O)C8=O)CC5)CC6)nc4c3F)c12 (stereo not drawn) [Compound 70]	> 70	< 5.1
CCc1cccc2cc(O)cc(-c3ncc4c(C5CC6CCC(C5)N6)nc(OC[C@@H]5C[C@@H](OC6CCN(CC7CCN(c8ccc9c(c8)CN(C8CCC(=O)NC8=O)C9=O)CC7)CC6)CN5C)nc4c3F)c12 (stereo partly drawn) [Compound 71]	> 70	< 5.1
C#Cc1c(F)ccc2cc(O)cc(-c3ncc4c(C5CC6CCC(C5)N6)nc(OCCN5CCC(CN6CC7(CCN(c8ccc9c(c8)CN(C8CCC(=O)NC8=O)C9=O)CC7)C6)CC5)nc4c3F)c12 (stereo not drawn) [Compound 72]	> 70	< 5.1
C#Cc1c(F)ccc2cc(O)cc(-c3ncc4c(C5CC6CCC(C5)N6)nc(OCCN5CCC(CC6CCN(CC7CCN(c8ccc9c(c8)C(=O)N(C8CCC(=O)NC8=O)C9=O)CC7)CC6)CC5)nc4c3F)c12 (stereo not drawn) [Compound 74]	> 70	< 5.1
C#Cc1c(F)ccc2cc(O)cc(-c3ncc4c(N5CC6CCC(C5)N6)nc(OCCN5CCC(CC6CCN(CC7CCN(c8cccc9c8C(=O)N(C8CCC(=O)NC8=O)C9=O)CC7)CC6)CC5)nc4c3F)c12 (stereo not drawn) [Compound 75]	–	< 5.1
C#Cc1c(F)ccc2cc(O)cc(-c3ncc4c(N5CC6CCC(C5)N6)nc(OCCN5CCC6(CC5)CCN(CC5CCN(c7ccc8c(c7)C(=O)N(C7CCC(=O)NC7=O)C8=O)CC5)CC6)nc4c3F)c12 (stereo not drawn) [Compound 76]	> 70	< 5.1
CCc1cccc2cc(O)cc(-c3ncc4c(N5CC6CCC(C5)N6)nc(OC[C@@H]5C[C@@H](OC6CCN(c7ccc8c(c7)CN(C7CCC(=O)NC7=O)C8=O)CC6)CN5C)nc4c3F)c12 (stereo partly drawn) [Compound 77]	> 70	< 5.1
C#Cc1c(F)ccc2cc(O)cc(-c3ncc4c(N5CC6CCC(C5)N6)nc(OCCN5CCC(C(F)(F)C6CCN(CC7CCN(c8ccc9c(c8F)CN(C8CCC(=O)NC8=O)C9=O)CC7)CC6)CC5)nc4c3F)c12 (stereo not drawn) [Compound 79, 3-{5-[4-({4-[(1-{2-[(4-{3,8-diazabicyclo[3.2.1]octan-3-yl}-7-(8-ethynyl-7-fluoro-3-hydroxynaphthalen-1-yl)-8-fluoropyrido[4,3-d]pyrimidin-2-yl)oxy]ethyl}piperidin-4-yl)difluoromethyl]piperidin-1-yl}methyl)piperidin-1-yl]-4-fluoro-1-oxo-2,3-dihydro-1H-isoindol-2-yl}piperidine-2,6-dione]	> 70	< 5.1
C#Cc1c(F)ccc2cc(O)cc(-c3ncc4c(N5CC6CCC(C5)N6)nc(OCCN5CCC(CN6CCC(CC7CCN(c8ccc9c(c8)n(C(C)C)c(=O)n9C8CCC(=O)NC8=O)CC7)CC6)CC5)nc4c3F)c12 (stereo not drawn) [Compound 80, 3-{5-[4-({1-[(1-{2-[(4-{3,8-diazabicyclo[3.2.1]octan-3-yl}-7-(8-ethynyl-7-fluoro-3-hydroxynaphthalen-1-yl)-8-fluoropyrido[4,3-d]pyrimidin-2-yl)oxy]ethyl}piperidin-4-yl)methyl]piperidin-4-yl}methyl)piperidin-1-yl]-2-oxo-3-(propan-2-yl)-2,3-dihydro-1H-1,3-benzodiazol-1-yl}piperidine-2,6-dione]	> 70	< 5.1
C#Cc1c(F)ccc2cc(O)cc(-c3ncc4c(N5CC6CCC(C5)N6)nc(OCCN5CCC(CN6CCC(CC7CCN(c8ccc9c(c8Cl)CN(C8CCC(=O)NC8=O)C9=O)CC7)CC6)CC5)nc4c3F)c12 (stereo not drawn) [Compound 81, 3-{4-chloro-5-[4-({1-[(1-{2-[(4-{3,8-diazabicyclo[3.2.1]octan-3-yl}-7-(8-ethynyl-7-fluoro-3-hydroxynaphthalen-1-yl)-8-fluoropyrido[4,3-d]pyrimidin-2-yl)oxy]ethyl}piperidin-4-yl)methyl]piperidin-4-yl}methyl)piperidin-1-yl]-1-oxo-2,3-dihydro-1H-isoindol-2-yl}piperidine-2,6-dione]	> 70	< 5.1
C#Cc1c(F)ccc2cc(O)cc(-c3ncc4c(N5CC6CCC(C5)N6)nc(OCCN5CCC(CN6CCC(CC7CCN(c8ccc9c(c8)n(C)c(=O)n9C8CCC(=O)NC8=O)CC7)CC6)CC5)nc4c3F)c12 (stereo not drawn) [Compound 82, 3-{5-[4-({1-[(1-{2-[(4-{3,8-diazabicyclo[3.2.1]octan-3-yl}-7-(8-ethynyl-7-fluoro-3-hydroxynaphthalen-1-yl)-8-fluoropyrido[4,3-d]pyrimidin-2-yl)oxy]ethyl}piperidin-4-yl)methyl]piperidin-4-yl}methyl)piperidin-1-yl]-3-methyl-2-oxo-2,3-dihydro-1H-1,3-benzodiazol-1-yl}piperidine-2,6-dione]	> 70	< 5.1
C#Cc1c(F)ccc2cc(O)cc(-c3ncc4c(N5CC6CCC(C5)N6)nc(OCCN5CCC6(CC5)CCN(CC5CCN(c7cccc8c7n(C)c(=O)n8C7CCC(=O)NC7=O)CC5)CC6)nc4c3F)c12 (stereo not drawn) [Compound 83, 3-(4-{4-[(9-{2-[(4-{3,8-diazabicyclo[3.2.1]octan-3-yl}-7-(8-ethynyl-7-fluoro-3-hydroxynaphthalen-1-yl)-8-fluoropyrido[4,3-d]pyrimidin-2-yl)oxy]ethyl}-3,9-diazaspiro[5.5]undecan-3-yl)methyl]piperidin-1-yl}-3-methyl-2-oxo-2,3-dihydro-1H-1,3-benzodiazol-1-yl)piperidine-2,6-dione]	> 70	< 5.1
C#Cc1c(F)ccc2cc(O)cc(-c3ncc4c(N5CC6CCC(C5)N6)nc(OC[C@]56CCCN5[C@H](CN5CCN(CC7CCN(c8ccc9c(c8)CN(C8CCC(=O)NC8=O)C9=O)CC7)CC5)CC6)nc4c3F)c12 (stereo partly drawn) [Compound 84, 3-[5-[4-[[4-[[(3S,8R)-8-[[4-(3,8-diazabicyclo[3.2.1]octan-3-yl)-7-(8-ethynyl-7-fluoro-3-hydroxy-1-naphthyl)-8-fluoro-pyrido[4,3-d]pyrimidin-2-yl]oxymethyl]-1,2,3,5,6,7-hexahydropyrrolizin-3-yl]methyl]piperazin-1-yl]methyl]-1-piperidyl]-1-oxo-isoindolin-2-yl]piperidine-2,6-dione]	> 70	< 5.1
CCc1c(F)ccc2cc(O)cc(-c3ncc4c(N5CC6CCC(C5)N6)nc(OC[C@@H]5C[C@@H](OC6CCN(CC7CCN(c8ccc9c(c8)CN(C8CCC(=O)NC8=O)C9=O)CC7)CC6)CN5C)nc4c3F)c12 (stereo partly drawn) [Compound 85, 3-(5-{4-[(4-{[(3R,5S)-5-{[(4-{3,8-diazabicyclo[3.2.1]octan-3-yl}-7-(8-ethyl-7-fluoro-3-hydroxynaphthalen-1-yl)-8-fluoropyrido[4,3-d]pyrimidin-2-yl)oxy]methyl}-1-methylpyrrolidin-3-yl]oxy}piperidin-1-yl)methyl]piperidin-1-yl}-1-oxo-2,3-dihydro-1H-isoindol-2-yl)piperidine-2,6-dione]	> 70	< 5.1
CCc1c(F)ccc2cc(O)cc(-c3ncc4c(N5CC6CCC(C5)N6)nc(OCCN5CCC(CC6CCN(CC7CCN(c8ccc9c(c8)CN(C8CCC(=O)NC8=O)C9=O)CC7)CC6)CC5)nc4c3F)c12 (stereo not drawn) [Compound 86, 3-{5-[4-({4-[(1-{2-[(4-{3,8-diazabicyclo[3.2.1]octan-3-yl}-7-(8-ethyl-7-fluoro-3-hydroxynaphthalen-1-yl)-8-fluoropyrido[4,3-d]pyrimidin-2-yl)oxy]ethyl}piperidin-4-yl)methyl]piperidin-1-yl}methyl)piperidin-1-yl]-1-oxo-2,3-dihydro-1H-isoindol-2-yl}piperidine-2,6-dione]	> 70	< 5.1
C#Cc1c(F)ccc2cc(O)cc(-c3ncc4c(N5CC6CCC(C5)N6)nc(OCCN5CCC(CN6CCC(CC7CCN(c8ccc9c(c8)CN(C8CCC(=O)NC8=O)C9=O)CC7)CC6)CC5)nc4c3F)c12 (stereo not drawn) [Compound 87, 3-[5-[4-[[1-[[1-[2-[4-(3,8-diazabicyclo[3.2.1]octan-3-yl)-7-(8-ethynyl-7-fluoro-3-hydroxy-1-naphthyl)-8-fluoropyrido[4,3-d]pyrimidin-2-yl]oxyethyl]-4-piperidyl]methyl]-4-piperidyl]methyl]-1-piperidyl]-1-oxo-isoindolin-2-yl]piperidine-2,6-dione]	> 70	< 5.1
